PubChem BioAssay (NCI)
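GI50 is the concentration that inhibits growth by half. TGI denotes the concentration required for complete inhibition of growth.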

Columns and labels:
Assay in all cases: NCI anticancer screen, dose series, 384-well format
HL-60(TB) leukemia = test system: HL-60(TB) leukemia
UACC-62 melanoma = test system: UACC-62 melanoma
U251 glioblastoma = test system: U251 glioblastoma
OVCAR-8 ovarian = test system: OVCAR-8 ovarian
UO-31 renal = test system: UO-31 renal
DU-145 prostate = test system: DU-145 prostate
NCI-H23 lung = test system: NCI-H23 lung
MALME-3M melanoma = test system: MALME-3M melanoma
HT29 colon = test system: HT29 colon
K-562 leukemia = test system: K-562 leukemia
T-47D breast = test system: T-47D breast
KM12 colon = test system: KM12 colon
SNB-75 CNS = test system: SNB-75 CNS
SF-268 CNS = test system: SF-268 CNS
SF-295 CNS = test system: SF-295 CNS
EKVX NSCLC = test system: EKVX NSCLC
A498 renal = test system: A498 renal
NCI-H226 lung = test system: NCI-H226 lung
SF-539 CNS = test system: SF-539 CNS
HOP-92 NSCLC = test system: HOP-92 NSCLC
ACHN renal = test system: ACHN renal
BT-549 breast = test system: BT-549 breast
SW-620 colon = test system: SW-620 colon
UACC-257 melanoma = test system: UACC-257 melanoma
NCI-H322M lung = test system: NCI-H322M lung
MCF7 breast = test system: MCF7 breast
M14 melanoma = test system: M14 melanoma
MOLT-4 leukemia = test system: MOLT-4 leukemia
IGROV1 ovarian = test system: IGROV1 ovarian

## O=C(Nc1ccc(OC(F)(F)F)cc1)c1sccc1NCc1ccnc2ccccc12
HL-60(TB) leukemia
  GI50: 1.69 µM
  TGI: 3.17 µM
UACC-62 melanoma
  GI50: 2.76 µM
  TGI: 14.3 µM
U251 glioblastoma
  GI50: 11.8 µM
  TGI: > 100 µM
OVCAR-8 ovarian
  GI50: 3.99 µM
  TGI: 16.2 µM
UO-31 renal
  GI50: 8.23 µM
  TGI: > 100 µM
DU-145 prostate
  GI50: 4.94 µM
  TGI: > 100 µM
NCI-H23 lung
  GI50: 2.39 µM
  TGI: 8.57 µM
MALME-3M melanoma
  GI50: 1.73 µM
  TGI: 8.96 µM
HT29 colon
  GI50: 4.31 µM
  TGI: 17.1 µM
K-562 leukemia
  GI50: 1.75 µM
  TGI: 3.66 µM
T-47D breast
  GI50: 2.03 µM
  TGI: 6.57 µM
KM12 colon
  GI50: 3.74 µM
  TGI: 15.9 µM
SNB-75 CNS
  GI50: 5.09 µM
  TGI: 51.6 µM
SF-268 CNS
  GI50: 6.24 µM
  TGI: 32 µM
SF-295 CNS
  GI50: 3.9 µM
  TGI: 19 µM
EKVX NSCLC
  GI50: 3.43 µM
  TGI: 19.9 µM
A498 renal
  GI50: 2.57 µM
  TGI: 12.8 µM
NCI-H226 lung
  GI50: 4.4 µM
  TGI: 19 µM
SF-539 CNS
  GI50: 5.11 µM
  TGI: 19.8 µM
HOP-92 NSCLC
  GI50: 3.99 µM
  TGI: 15.7 µM
ACHN renal
  GI50: 3.39 µM
  TGI: 20.7 µM
BT-549 breast
  GI50: 5.78 µM
  TGI: 17.7 µM
SW-620 colon
  GI50: 6.31 µM
  TGI: 23 µM
UACC-257 melanoma
  GI50: 3.51 µM
  TGI: 13.6 µM
NCI-H322M lung
  GI50: 4.43 µM
  TGI: 40.4 µM
MCF7 breast
  GI50: 3.24 µM
  TGI: 15.9 µM
M14 melanoma
  GI50: 3.56 µM
  TGI: 14.3 µM
MOLT-4 leukemia
  GI50: 1.93 µM
  TGI: 3.56 µM
IGROV1 ovarian
  GI50: 2.47 µM
  TGI: 6.72 µM
